Data taken from publication PMC3045849 (Bioorganic & medicinal chemistry letters, 2009).
Non-standard residues stand in square brackets, D forms with d. Residues, ends and D or L forms follow the SMILES beside them. *: point of attachment. Asu = N[C@@H](CCCCCC(=O)O)C(=O)O; NH(2-NH2-phenyl) = Nc1ccccc1N*

Columns and labels:
[1] = tested on: human lymphoblastoid cell line (GM15850); assay: Acetylation levels of endogenous histone H3 by western blot; assay type: cell-based; conditions: 20 µM, 48 h incubation, GM15850 cells
[2] = biological target: recombinant human HDAC3 (Homo sapiens, UniProt O15379); assay: Inhibition of recombinant HDAC3; assay type: biochemical
recombinant human HDAC3, sequence (O15379 whole entry): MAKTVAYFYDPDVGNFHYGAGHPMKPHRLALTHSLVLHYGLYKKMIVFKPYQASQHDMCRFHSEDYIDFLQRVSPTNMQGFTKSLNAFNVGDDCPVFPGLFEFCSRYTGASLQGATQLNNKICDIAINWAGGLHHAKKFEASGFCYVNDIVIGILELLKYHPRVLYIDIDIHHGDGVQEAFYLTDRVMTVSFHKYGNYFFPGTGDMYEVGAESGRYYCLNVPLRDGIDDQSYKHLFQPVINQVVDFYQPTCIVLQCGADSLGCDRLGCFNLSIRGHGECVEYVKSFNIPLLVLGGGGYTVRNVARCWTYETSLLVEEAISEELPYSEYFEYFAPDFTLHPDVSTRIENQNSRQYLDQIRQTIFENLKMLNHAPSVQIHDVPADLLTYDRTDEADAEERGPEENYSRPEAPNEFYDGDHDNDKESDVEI
recombinant human HDAC3, sequence (Q9Y618 395-489 partner limits assumed): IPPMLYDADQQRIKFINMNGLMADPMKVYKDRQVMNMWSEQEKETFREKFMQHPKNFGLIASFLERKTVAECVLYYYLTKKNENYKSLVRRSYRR

[3] = biological target: recombinant human HDAC1 (Homo sapiens, UniProt Q13547); assay: Inhibition of recombinant HDAC1; assay type: biochemical
recombinant human HDAC1, sequence (Q13547 whole entry): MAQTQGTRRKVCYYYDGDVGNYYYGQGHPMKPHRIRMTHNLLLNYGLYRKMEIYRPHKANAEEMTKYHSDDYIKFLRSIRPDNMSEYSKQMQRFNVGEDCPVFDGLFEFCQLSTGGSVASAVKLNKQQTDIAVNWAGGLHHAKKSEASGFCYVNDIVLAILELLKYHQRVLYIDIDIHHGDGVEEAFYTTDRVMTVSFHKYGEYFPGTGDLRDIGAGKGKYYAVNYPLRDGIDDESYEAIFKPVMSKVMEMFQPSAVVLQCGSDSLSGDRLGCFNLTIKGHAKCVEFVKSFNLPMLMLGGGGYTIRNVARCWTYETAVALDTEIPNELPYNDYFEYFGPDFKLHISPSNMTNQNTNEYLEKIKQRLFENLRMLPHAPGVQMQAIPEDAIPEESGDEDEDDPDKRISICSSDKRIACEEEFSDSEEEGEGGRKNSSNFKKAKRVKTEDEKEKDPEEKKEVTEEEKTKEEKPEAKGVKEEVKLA

| Compound | effect on acetylation of endogenous histone H3 [1] | IC50 [2] [µM] | IC50 [3] [µM] |
| --- | --- | --- | --- |
| N=C(N)NCCC[C@H](N)C(=O)NCC(=O)N[C@@H](CCCCCC(=O)Nc1ccccc1N)C(=O)Nc1ccccc1N [compound 10] | relatively stronger effects |  |  |
| N=C(N)NCCC[C@H](N)C(=O)NCC(=O)N[C@@H](CCCCCC(=O)Nc1ccccc1N)C(=O)NCC(=O)O [compound 13] (H-RG[Asu](NH(2-NH2-phenyl))G-OH; N-terminus and C-terminus assumed) | no effect | 69.3 | 532 |
| Cc1ccc(C(=O)NCC(=O)NCCC(=O)Nc2ccccc2N)cc1 [compound 15] | relatively strong effect |  |  |
| Cc1ccc(C(=O)N[C@@H](CCCNC(=N)N)C(=O)NCCC(=O)Nc2ccccc2N)cc1 [compound 16] | no such effect |  |  |
